In BindingDB's records for patent US12319655 (Deciphera Pharmaceuticals, 2025) one finds IC50 data, which are given here for four molecules.

The target of test [1] is T1, Serine/threonine-protein kinase B-raf [416-766] (UniProt P15056).
T1 construct: 416-766
The test is described as follows: Biochemical Assay for B-Raf (1). The method, then: (§1) Activity of B-Raf kinase (SEQ. ID NO: 2) was determined spectroscopically using a coupled pyruvate kinase/lactate dehydrogenase assay that continuously monitors the ATP hydrolysis-dependent oxidation of NADH (e.g., Schindler et al., Science, 2000, 289, 1938-1942). Assays were conducted in 384-well plates (100 μL final volume) using 0.13 nM B-Raf (Sigma), 1.5 units pyruvate kinase, 2.1 units lactate dehydrogenase, 1 mM phosphoenol pyruvate, 0.28 mM NADH, 30.1 nM MEK (SignalChem), and 1 mM ATP in assay buffer (100 mM Tris, Ph 7.5, 15 mM MgCl2, 0.5 mM DTT, 0.1% octyl-glucoside, 0.002% (w/v) BSA, and 0.002% Triton X-100). Inhibition of B-Raf was measured by adding serial diluted test compound (final assay concentration of 1% DMSO). A decrease in absorption at 340 nm was monitored continuously for 6 h at 30° C. on a multi-mode microplate reader (BioTek). The reaction rate was calculated using the 4 to 5 h time frame. The reaction rate at each concentration of compound was converted to percent inhibition using controls (i.e., reaction with no test compound and reaction with a known inhibitor) and IC50 values were calculated by fitting a four-parameter sigmoidal curve to the data using Prism (GraphPad software).

For test [2], the target named is T2, RAF proto-oncogene serine/threonine-protein kinase [306-648,Y340D,Y341D] (Homo sapiens, UniProt P04049, Y340D/Y341D).
T2 construct: 306-648
The experiment in a line: Biochemical Assay for C-Raf (1). The method, then:
as §1, with “of C-Raf” for “of B-Raf”, “NO: 3)” for “NO: 2)”, “using 0.43” for “using 0.13”, “nM C-Raf” for “nM B-Raf”

Test [3] addresses T3, Serine/threonine-protein kinase B-raf [416-766,V600E] (Homo sapiens, UniProt P15056, V600E).
T3 construct: 416-766
The test is described as follows: Biochemical Assay for B-Raf (V600E) (1). The protocol: Activity of B-Raf (V600E) (SEQ. ID NO: 4) kinase was determined spectroscopically using a coupled pyruvate kinase/lactate dehydrogenase assay that continuously monitors the ATP hydrolysis-dependent oxidation of NADH (e.g., Schindler et al., Science, 2000, 289, 1938-1942). Assays were conducted in 384-well plates (100 μL final volume) using 0.03 nM B-Raf (SignalChem), 1.5 units pyruvate kinase, 2.1 units lactate dehydrogenase, 1 mM phosphoenol pyruvate, 0.28 mM NADH, 30.1 nM MEK (SignalChem), and 1 mM ATP in assay buffer (100 mM Tris, Ph 7.5, 15 mM MgCl2, 0.5 mM DTT, 0.1% octyl-glucoside, 0.002% (w/v) BSA, and 0.002% Triton X-100). Inhibition of B-Raf (V600E) was measured by adding serial diluted test compound (final assay concentration of 1% DMSO). A decrease in absorption at 340 nm was monitored continuously for 6 h at 30° C. on a multi-mode microplate reader (BioTek). The reaction rate was calculated using the 3 to 4 h time frame. The reaction rate at each concentration of compound was converted to percent inhibition using controls (i.e., reaction with no test compound and reaction with a known inhibitor) and IC50 values were calculated by fitting a four-parameter sigmoidal curve to the data using Prism (GraphPad software).

Where only a bound is given, the exact number is not on record here.

T2 sequence (P04049 306-648 Y340D/Y341D): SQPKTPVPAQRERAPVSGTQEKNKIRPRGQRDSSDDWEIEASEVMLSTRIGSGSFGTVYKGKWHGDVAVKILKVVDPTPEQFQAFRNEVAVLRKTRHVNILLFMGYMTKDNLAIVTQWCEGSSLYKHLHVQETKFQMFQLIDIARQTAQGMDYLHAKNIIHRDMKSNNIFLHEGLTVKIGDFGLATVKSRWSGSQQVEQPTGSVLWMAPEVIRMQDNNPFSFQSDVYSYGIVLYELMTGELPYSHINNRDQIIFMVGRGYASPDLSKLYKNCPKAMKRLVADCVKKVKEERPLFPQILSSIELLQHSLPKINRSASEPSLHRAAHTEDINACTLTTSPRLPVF
T1 sequence (P15056 416-766): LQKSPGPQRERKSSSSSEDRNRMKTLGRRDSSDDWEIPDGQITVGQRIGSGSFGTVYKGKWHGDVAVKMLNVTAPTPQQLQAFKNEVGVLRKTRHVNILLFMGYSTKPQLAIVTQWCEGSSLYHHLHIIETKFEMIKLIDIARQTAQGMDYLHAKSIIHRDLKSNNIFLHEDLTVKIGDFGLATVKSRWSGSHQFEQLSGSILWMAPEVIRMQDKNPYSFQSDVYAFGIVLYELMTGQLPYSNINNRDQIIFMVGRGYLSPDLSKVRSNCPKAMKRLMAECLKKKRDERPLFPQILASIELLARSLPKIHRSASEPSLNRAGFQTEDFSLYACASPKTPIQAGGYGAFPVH
T3 sequence (P15056 416-766 V600E): as the sequence (P15056 416-766) above, with V185E counted along it

As for `Cc1ccc(NC(=O)c2cnnc(C3CC3)c2)cc1-c1nccc(-c2ccnc(NC(=O)C3CC3)c2)n1` [US12319655, Example 272], the IC50 in test [1] and in test [2] was < 100 nM throughout.
Regarding `Cc1ccc(NC(=O)c2ccnc(C(F)(F)F)c2)cc1-c1cccc(-c2ccnc(NC(=O)C3CC3)c2)c1` [US12319655, Example 58], the IC50 in test [2] and in test [3] was < 100 nM throughout.
For `Cc1ccc(NC(=O)c2ccnc(C(F)(F)F)c2)cc1-c1cc(-c2ccnc(N)c2)n(C)c(=O)c1` [US12319655, Example 53], in test [3], the concentration for half-maximal inhibition (IC50) (as a rule, the concentration that inhibits the measured activity by half) is < 100 nM.
On to `Cc1ccc(NC(=O)c2ccnc(C(C)(C)C#N)c2)cc1-c1ccnc(-c2ccncc2)c1` [US12319655, Example 55], for which the half-maximal inhibitory concentration (IC50) in test [1] and in test [2] was < 100 nM throughout.
